Measured values published in patent publication US10398142B2, “Polycationic amphiphiles as antimicrobial agents” (priority 2013, dated 2019).
Several values for one entry are separate records, joined by “and”; a condition that tells them apart may be missing. Equal values may be shown once. Read-outs that look alike come from different tables or passages of the source. Marks after values point to notes of the source that are not given here.

Assays:
[1] = test system: Enterococcus faecalis (OG1RF); experiment: Minimum inhibitory concentration (MIC), broth microdilution; format: cell-based; details: for MIC: read-out: MIC E. faecalis
Description: (§1) The term “minimum inhibitory concentration (MIC)” means the lowest concentration of an antimicrobial agent that will inhibit the visible growth of a microorganism after overnight incubation. MIC values against bacteria, for example, the Gram-positive Staphylococcus aureus and Enterococcus faecalis and the Gram-negative Escherichia coli and Pseudomonas aeruginosa were determined by standard methods.
(§2) With nearly three-dozen amphiphiles varying in structure and cationic nature synthesized, minimum inhibitory concentration (MIC) values against the Gram-positive Staphylococcus aureus and Enterococcus faecalis and the Gram-negative Escherichia coli and Pseudomonas aeruginosa were determined by standard methods. […] The commercially available antibacterial agent benzalkonium chloride (benzyldimethyldodecylammonium chloride, Bn,12) was tested for comparison. The broth microdilution for determining MIC values was performed as previously reported.
(§3) Different biological assays were performed. […] All cultures, with the exception of E. faecalis, were grown with shaking at 250 rpm.
(§4) Minimum inhibitory concentration (MIC) values against bacteria were measured using standard method. Compounds were serially diluted two-fold from an aqueous stock solution to yield twelve test concentrations. Overnight S. aureus, E. faecalis, E. coli, P. aeruginosa, CA-MRSA, and HA-MRSA cultures diluted to ca. 10^6 cfu/mL in Mueller-Hinton media and 100 μL were inoculated into each well of a U-bottom 96-well plate (BD Biosciences, BD351177) containing 100 μL of compound solution. Plates were incubated statically at 37° C. for 72 hours upon which time wells were evaluated visually for bacterial growth. The MIC was determined as the lowest concentration of compound resulting in no bacterial growth visible to the naked eye, based on the majority of three independent experiments. Positive and negative aqueous and media controls were conducted for each trial.

[2] = test system: Escherichia coli (MC4100); experiment: as above; format: cell-based; details: for MIC: read-out: MIC E. coli
Description: as §1, §2, §3, §4

[3] = test system: Pseudomonas aeruginosa (PAO1); experiment: as above; format: cell-based; details: for MIC: read-out: MIC P. aeruginosa
Description: as §1, §2, §3, §4

[4] = test system: Staphylococcus aureus MSSA (SH1000); experiment: as above; format: cell-based
Description: as §1, §2, §3, §4

CA-MRSA (USA300-0114) = experiment: as above; format: cell-based, Staphylococcus aureus
Description: as §3, §4

HA-MRSA (ATCC 33591) = experiment: as above; format: cell-based, Staphylococcus aureus
Description: as §3, §4

[5] = test system: S. aureus (MSSA, SH1000) biofilms; experiment: Minimum biofilm eradication concentration (MBEC), regrowth assay; format: cell-based, Staphylococcus aureus; details: for MBEC MSSA: Table 5, SH1000
Description: (§5) A regrowth assay was used to establish the MBEC of a compound to evaluate the antibiofilm activity. See also H. Ceri, M. Olson, D. Morck, D. Storey, R. Read, A. Buret, B. Olson, Methods Enzymol. 2001, 337, 377.
(§6) Encouraged by the potency of the QACs against planktonic bacterial cells, the inventors then evaluated the efficacy of compound (12,2,12) against Staphylococcus aureus and Enterococcus faecalis biofilms. […] To both accurately evaluate the antibiofilm activity, a regrowth assay was utilized to establish the minimum biofilm eradication concentration (MBEC) of each compound.
(§7) Different biological assays were performed. For all biological assays, laboratory strains of methicillin-susceptible Staphylococcus aureus MSSA (SH1000), Enterococcus faecalis (OG1RF), Escherichia coli (MC4100), Pseudomonas aeruginosa (PAO1), community-acquired methicillin-resistant Staphylococcus aureus CA-MRSA (USA300-0114), and hospital-acquired methicillin-resistant Staphylococcus aureus HA-MRSA (ATCC 33591) were grown at 37° C. overnight from freezer stocks in 10 mL of the media indicated for each assay. All cultures, with the exception of E. faecalis, were grown with shaking at 250 rpm.
(§8) Minimum biofilm eradication concentration (MBEC) was also measured. To each well of a flat-bottomed 96-well plate (Corning 3370), 8 μL of overnight bacterial culture was brought to a volume of 200 μL with fresh media (BHI for S. aureus and MRSA, Todd Hewitt (TH) for E. faecalis). Plates were incubated statically for 24 hours at 37° C. to establish biofilms. After 24 hours, the wells were carefully emptied by inverting the plate and gently shaking. A pre-mixed solution of media and aqueous compound stock solution was added to each well and plates were incubated at 37° C. 16 hours after pre-established biofilms were treated with compound, the media from each well was removed, biofilms were washed three times with 200 μL PBS to remove planktonic cells, and biofilms were incubated overnight at 37° C. in 200 μL of fresh media to allow any viable cells to continue growing. The wells were then vigorously pipetted to resuspend the biofilm cells and the OD at 595 nm was measured using a plate reader (POLARstar Omega, BMG Labtech). Biofilms reaching a final OD of less than 0.1 were considered eradicated and the lowest concentration of antibiotic corresponded to the MBEC. Four replicates were completed for each concentration of compound as well as positive and negative controls.

E. faecalis biofilms = experiment: as above; format: cell-based, Enterococcus faecalis
Description: as §5, §6, §7, §8

[6] = test system: CA-MRSA (USA300-0114) biofilms; experiment: as above; format: cell-based, Staphylococcus aureus; details: for MBEC CA-MRSA: Table 5, USA300-0114
Description: as §5, §7, §8

[7] = test system: red blood cells (defibrinated sheep blood); experiment: Hemolysis assay (Lysis20); details: Table 4; concentration at which less than 20% of red blood cells are lysed
Description: Hemolysis assays (Lysis20) were performed according to the procedure detailed in Peng, L., DeSousa, J., Su, Z., Novak, B. M., Nevzorov, A. A., Garland, E. R., and Melander, C., Inhibition of Acinetobacter baumannii biofilm formation on a methacrylate polymer containing a 2-aminoimidazole subunit, Chem. Comm. 2011, 47, 4896-4898. Defibrinated sheep blood was purchased from Hemostat Labs (DSB 100). Compounds representative of each class were serially diluted in sterile PBS from aqueous stock solutions and incubated with resuspended blood cells. The OD of the final suspensions were measured directly using plate reader. TritonX (1% by volume) served as a positive control (100% lysis marker) and sterile PBS served as a negative control (0% lysis marker).
Lysis20 indicates the concentration of compound (in μM) at which less than 20% of red blood cells are lysed.

[8] = Table 3, read-out: MIC S. aureus
[9] = Table 4, SH1000, read-out: MIC MSSA
[10] = Table 4, USA300-0114, read-out: MIC CA-MRSA
[11] = Table 4, ATCC 33591, read-out: MIC HA-MRSA
[12] = table for compound (12,3,11-SH,3,12)
[13] = Table 1, read-out: MIC S. aureus
[14] = Table 2, pre-established biofilm, ± values varied between 50 and 100 μM for the six trials

| SMILES | MIC ([1]; Table 3) [µM] | MIC ([2]; Table 3) [µM] | MIC ([3]; Table 3) [µM] | MIC [4, 8] [µM] | MIC [4, 9] [µM] | MIC (CA-MRSA (USA300-0114); [10]) [µM] | MIC (HA-MRSA (ATCC 33591); [11]) [µM] | MBEC MSSA [5] [µM] | MBEC E. faecalis (E. faecalis biofilms; Table 5) [µM] | MBEC CA-MRSA [6] [µM] | Lysis20 [7] [µM] | also measured |
| --- | --- | --- | --- | --- | --- | --- | --- | --- | --- | --- | --- | --- |
| CCCCCCCCCCCC[N+](C)(C)CCC[N+](C)(CCC[N+](C)(C)CCCCCCCCCCCC)Cc1ccccc1.[Br-].[Br-].[Br-] [12,3,Bn,3,12] | 1 | 1 | 2 | 1 | 2 | 1 | 1 | 100 | 100 | 200 | 8 | – |
| CCCCCCCCCCCC[N+](C)(C)CC[CH-][N+](C)(CCCCCCCCCCCS)CCC[N+](C)(C)CCCCCCCCCCCC (stereo not drawn) [12,3,11-SH,3,12] | – | – | – | – | – | – | – | 200 | >200 | >200 | 16 | MIC ([1]; Enterococcus faecalis, table for compound (12,3,11-SH,3,12)): 2 µM; MIC ([2]; Escherichia coli, table for compound (12,3,11-SH,3,12)): 2 µM; MIC ([3]; Pseudomonas aeruginosa, PAO1, table for compound (12,3,11-SH,3,12)): 8 µM; MIC ([4]; Staphylococcus aureus, MSSA, Table 4, SH1000, read-out: MIC MSSA): 2 µM; MIC ([4]; Staphylococcus aureus, MSSA, table for compound (12,3,11-SH,3,12), read-out: MIC S. aureus): 2 µM; MIC (CA-MRSA (USA300-0114); Staphylococcus aureus, Table 4, USA300-0114, read-out: MIC CA-MRSA): 2 µM; MIC (CA-MRSA (USA300-0114); Staphylococcus aureus, table for compound (12,3,11-SH,3,12), read-out: MIC USA300-0114): 2 µM; MIC (HA-MRSA (ATCC 33591); Staphylococcus aureus, Table 4, ATCC 33591, read-out: MIC HA-MRSA): 2 µM; MIC (HA-MRSA (ATCC 33591); Staphylococcus aureus, table for compound (12,3,11-SH,3,12), read-out: MIC ATCC 33591): 2 µM; MBEC S. aureus [5, 12]: 200 µM; MBEC E. faecalis (E. faecalis biofilms; [12]): >200 µM; MBEC USA300-0114 [6, 12]: >200 µM |
| CCCCCCCCCCCC[N+](C)(C)CC[N+](C)(C)CCCCCCCCCCCC [12,2,12] | – | – | – | – | 1 | 0.5 | 0.5 | 75 ± 25 | 50 | 200 | 8 | MIC ([1]; Table 1): 1 µM; MIC ([2]; Table 1): 2 µM; MIC ([3]; Table 1): 4 µM; MIC [4, 13]: 1 µM; MBEC S. aureus [5, 14]: 75 μM and 75 ± 25^a μM; MBEC E. faecalis (E. faecalis biofilms; [14]): 75 μM and 75 ± 25^a μM |
| CCCCCCCCCCCC[N+](C)(C)CCC[N+](C)(CCCC)CCC[N+](C)(C)CCCCCCCCCCCC.[Br-].[Br-].[Br-] [12,3,4,3,12] | 1 | 1 | 2 | 1 | 1 | 0.5 | 0.5 | 75 ± 25 | 50 | 75 ± 25 | 8 | – |
| CCCCCCCCCCCC[N+](C)(C)CC[N+](C)(C)CC[N+](C)(C)CCCCCCCCCCCC.[Br-].[Br-].[I-] [12,2,1,2,12] | – | – | – | – | 1 | 1 | 1 | 200 | >200 | ≥200 | 16 | MIC ([1]; Table 1): ≤0.25 µM; MIC E. faecalis ([1]; Table 3): ≤0.25-4^a μM; MIC ([2]; Table 1): 0.5 µM; MIC E. coli ([2]; Table 3): 0.5-4^a μM; MIC ([3]; Table 1): 1 µM; MIC P. aeruginosa ([3]; Table 3): 1-8^a μM; MIC [4, 13]: ≤0.25 µM; MIC S. aureus ([4]; Table 3): ≤0.25-4^a μM; MBEC S. aureus [5, 14]: 50 µM; MBEC E. faecalis (E. faecalis biofilms; [14]): 25 µM |
| CCCCCCCCCCCCCCCC[N+](C)(C)CCCCC[N+](C)(C)CCCCCCCCCCCCCCCC.[Br-].[Br-] [16,5,16] | 2 | 16 | 32 | 2 | 2 | 8 | 1 | 200 | ≥200 | >200 | 4 | – |
| CCCCCCCCCCCC[N+](C)(C)CCC[N+](C)(CCCCCCCCCCCC)CCC[N+](C)(C)CCCCCCCCCCCC.[Br-].[Br-].[Br-] [12,3,12,3,12] | 1 | 1 | 4 | 0.5 | 0.5 | 1 | 1 | 100 | 200 | >200 | 4 | – |
